Common to all, as to format: in vivo
The subject of experiment [1] is spring barley, HORVS Montoya. The experiment in a line: Treatment 1 day before: safener applied one day before herbicide, crop damage. The source says:
(§1) Seeds of crops (spring wheat, TRZAS; spring barley, HORVS; maize, ZEAMA) were placed in sandy loam soil in pots of a diameter of 7-8 cm, covered with soil, and cultivated in a greenhouse under good growth conditions until plants were at the 1-3 leaf stage (BBCH 11-13). For split safener and herbicide treatment, first the safener was applied followed by the herbicide treatment on the following day. The safener and herbicides were formulated as WP and sprayed onto the green parts of the plants as an aqueous suspension at an equivalent water application rate of 300 l/ha, with addition of wetting agent and adjuvants (e.g. Mero, 1.5 l/ha; ammonium sulphate, 2 kg/ha). An equivalent set of plants was treated with the herbicides but without the prior safener treatment.
(§2) After application, the test plants were kept in the greenhouse under good growth conditions. 10 and 21 days after treatment (DAT) with the herbicide, % crop damage observed on the treated plants was scored visually in comparison to control plants that had not received any safener or herbicide treatment.

For experiment [2], the system named is spring wheat, TRZAS Triso. The experiment is described as above. The conditions noted are these: 21 DAT.
From the text: as §1, §2

Experiment [3] deals with spring barley, HORVS Montoya. The experiment in a line: Tank-mix; post-emergence: crop damage by herbicide with/without safener mefenpyr-diethyl. In a few lines:
(§3)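 Visual percent crop damage (0–100 relative to untreated plants) assessed 1–3 weeks post-application. Plants in sandy loam were sprayed at the 1–3-leaf stage with herbicide with or without safener at several rates, water volume 300 l/ha.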

The subject of experiment [4] is spring wheat, TRZAS Triso. The description is as above. The conditions noted are these: 10 DAT. Put shortly: as §3
The test system of experiment [5] is spring barley, HORVS Montoya. The experiment in a line: Seed treatment with safener; post-emergence herbicide, crop damage. The conditions noted are these: for HER effect + SAF / Reduction [%] / Reduction [Difference]: mefenpyr-diethyl 0.5 g a.i./kg seed. Put shortly: (§4)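 Crop injury was rated visually in % at 10 and 21 days after post-emergence spraying at the 2-leaf stage. The herbicide was a WP in 300 l/ha water plus 1 l/ha MERO. Plants grew from seed either safener-coated at stated g a.i./kg rates via a milk-diluted slurry, or untreated.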

The test system of experiment [6] is spring wheat, TRZAS Triso. Described as above. The conditions noted are these: for HER effect + SAF [%] (crop damage) / Reduction [%] / Reduction [Difference]: mefenpyr-diethyl 0.5 g a.i./kg seed; for HER effect [%] (crop damage, herbicide without safener): no safener. Put shortly:
as §4

The mark [7] stands for this setting: HER 100 g a.i./ha, mefenpyr-diethyl 100 g a.i./ha 1 day before, 10 DAT.
Setting [8] is: HER 100 g a.i./ha, mefenpyr-diethyl 100 g a.i./ha 1 day before.
The mark [9] stands for this setting: HER 200 g a.i./ha, mefenpyr-diethyl 100 g a.i./ha 1 day before.
Where [10] appears, read: HER 25 g a.i./ha, mefenpyr-diethyl 50 g a.i./ha 1 day before, 21 DAT.
The mark [11] stands for this setting: HER 50 g a.i./ha, mefenpyr-diethyl 50 g a.i./ha 1 day before, 21 DAT.
[12] abbreviates: HER 100 g a.i./ha, mefenpyr-diethyl 50 g a.i./ha 1 day before.
[13] abbreviates: HER 200 g a.i./ha, mefenpyr-diethyl 50 g a.i./ha 1 day before.
[14] abbreviates: HER 6 g a.i./ha + mefenpyr-diethyl 50 g a.i./ha, 10 DAT.
[15] abbreviates: HER 24 g a.i./ha + mefenpyr-diethyl 100 g a.i./ha, 10 DAT.
[16] abbreviates: HER 6 g a.i./ha + mefenpyr-diethyl 50 g a.i./ha.
Where [17] appears, read: HER 24 g a.i./ha + mefenpyr-diethyl 100 g a.i./ha.
[18] abbreviates: HER 24 g a.i./ha post-emergence, 10 DAT.
Setting [19] is: HER 32 g a.i./ha + mefenpyr-diethyl 100 g a.i./ha, 21 DAT.
Setting [20] is: HER 1.5 g a.i./ha + mefenpyr-diethyl 50 g a.i./ha.
Setting [21] is: HER 8 g a.i./ha post-emergence, 21 DAT.
Setting [22] is: HER 32 g a.i./ha post-emergence, 21 DAT.
[23] abbreviates: herbicide alone 32 g a.i./ha post-emergence, 21 DAT.
The mark [24] stands for this setting: HER 2 g a.i./ha + mefenpyr-diethyl 50 g a.i./ha, 21 DAT.
Where [25] appears, read: HER 2 g a.i./ha + mefenpyr-diethyl 50 g a.i./ha.
[26] abbreviates: HER 2 g a.i./ha post-emergence, 21 DAT.

As to `CCOC(=O)C1C=CC(NC(=O)C2(C(F)(F)F)CC(c3ccccc3)=NO2)C1` (stereo not drawn) [Example 1.9], the entries for the “HER effect + SAF” value in experiment [1] (setting [7]), in experiment [2] (setting [8]) and in experiment [2] (setting [9]) were 20%, 20% and 25%, respectively. In addition, the “Reduction [%]” value in experiment [1] (setting [7]) stood at 50%; in experiment [2] (setting [8]), 67%; in experiment [2] (setting [9]), 64%. Moreover, the entries for the “Reduction [Difference]” value in experiment [1] (setting [7]), in experiment [2] (setting [8]) and in experiment [2] (setting [9]) were 20, 40 and 45, respectively. In addition, the HER effect in experiment [1] (herbicide alone 100 g a.i./ha, 10 DAT) worked out at 40%; in experiment [2] (herbicide alone 100 g a.i./ha), 60%; in experiment [2] (herbicide alone 200 g a.i./ha), 70%.

Regarding `CC1(C(=O)NC2C=CC(C(=O)N3CCCCO3)C2)CC(c2cc(F)cc(F)c2)=NO1` (mixture of isomers) [Example 1.46], the “HER effect + SAF” value in experiment [1] (setting [10]) amounted to 10%; in experiment [1] (setting [11]), 20%; in experiment [2] (setting [12]) it was 5%; in experiment [2] (setting [13]) it was 5%. Also, the “Reduction [%]” value came out at 78% in experiment [1] (setting [10]), 69% in experiment [1] (setting [11]), 92% in experiment [2] (setting [12]) and 94% in experiment [2] (setting [13]). For the same compound, the “Reduction [Difference]” value is 35 in experiment [1] (setting [10]), 45 in experiment [1] (setting [11]), 55 in experiment [2] (setting [12]) and 75 in experiment [2] (setting [13]). Moreover, the HER effect in experiment [1] (herbicide alone 25 g a.i./ha, 21 DAT) turned out to be 45%; in experiment [1] (herbicide alone 50 g a.i./ha, 21 DAT), 65%; in experiment [2] (herbicide alone 100 g a.i./ha), 60%; in experiment [2] (herbicide alone 200 g a.i./ha) it was 80%.

On to `CC1(C(=O)NC2COC(C(=O)OCc3ccccc3)C2)CC(c2cccc(F)c2)=NO1` (mixture of isomers) [Example 1.79], for which the “HER effect + SAF” value came out at 0% in experiment [3] (setting [14]); 0% in experiment [3] (setting [15]); 0% in experiment [4] (setting [16]); 10% in experiment [4] (setting [17]); 40% in experiment [5] (setting [18]). For the same compound, the “Reduction [%]” value in experiment [3] (setting [14]) is 100%; in experiment [3] (setting [15]) it was 100%; in experiment [4] (setting [16]), 100%; in experiment [4] (setting [17]), 80%; in experiment [5] (setting [18]), 43%; in experiment [6] (10 DAT, HER dose 24 g a.i./ha), 40%. Further, the “Reduction [Difference]” value in experiment [3] (setting [14]) is reported as 20; in experiment [3] (setting [15]), 70; in experiment [4] (setting [16]), 30; in experiment [4] (setting [17]), 40; in experiment [5] (setting [18]), 30; in experiment [6] (10 DAT, HER dose 24 g a.i./ha), 20. Further, the HER effect in experiment [3] (herbicide alone 6 g a.i./ha, 10 DAT) turned out to be 20%; in experiment [3] (herbicide alone 24 g a.i./ha, 10 DAT) it was 70%; in experiment [4] (herbicide alone 6 g a.i./ha), 30%; in experiment [4] (herbicide alone 24 g a.i./ha) it was 50%; in experiment [5] (herbicide alone 24 g a.i./ha post-emergence, 10 DAT), 70%. The “HER effect + SAF [%] (crop damage)” value in experiment [6] (10 DAT, HER dose 24 g a.i./ha) stood at 30%. The “HER effect [%] (crop damage, herbicide without safener)” value in experiment [6] (10 DAT, HER dose 24 g a.i./ha) is 50%.

Consider `CC(C)OC(=O)C1CC(NC(=O)C2(C)CC(c3cccc(F)c3)=NO2)CO1` (mixture of isomers) [Example 1.78], for which the “HER effect + SAF” value in experiment [3] (setting [19]) was determined as 10%; in experiment [4] (setting [20]), 0%; in experiment [4] (setting [16]), 10%; in experiment [4] (setting [17]) it was 30%; in experiment [5] (setting [21]), 0%; in experiment [5] (setting [22]) it was 10%. Further, the “Reduction [%]” value is 75% in experiment [3] (setting [19]); 100% in experiment [4] (setting [20]); 86% in experiment [4] (setting [16]); 57% in experiment [4] (setting [17]); 100% in experiment [5] (setting [21]); 75% in experiment [5] (setting [22]). Besides, the “Reduction [%]” value turned out to be 57% in experiment [6] (10 DAT, HER dose 6 g a.i./ha) and 57% in experiment [6] (10 DAT, HER dose 24 g a.i./ha). Further, the “Reduction [Difference]” value in experiment [3] (setting [19]) is 30; in experiment [4] (setting [20]), 20; in experiment [4] (setting [16]), 60; in experiment [4] (setting [17]), 40; in experiment [5] (setting [21]), 20; in experiment [5] (setting [22]), 30. In addition, the “Reduction [Difference]” value is listed as 40 in experiment [6] (10 DAT, HER dose 6 g a.i./ha) and 40 in experiment [6] (10 DAT, HER dose 24 g a.i./ha). Besides, the HER effect was determined as 40% in experiment [3] (herbicide alone 32 g a.i./ha, 21 DAT); 20% in experiment [4] (herbicide alone 1.5 g a.i./ha); 70% in experiment [4] (herbicide alone 6 g a.i./ha); 70% in experiment [4] (herbicide alone 24 g a.i./ha); 20% in experiment [5] (herbicide alone 8 g a.i./ha post-emergence, 21 DAT); 40% in experiment [5] (setting [23]). In addition, the “HER effect + SAF [%] (crop damage)” value is on record as 30% in experiment [6] (10 DAT, HER dose 6 g a.i./ha) and 30% in experiment [6] (10 DAT, HER dose 24 g a.i./ha). The “HER effect [%] (crop damage, herbicide without safener)” value in experiment [6] (10 DAT, HER dose 6 g a.i./ha) is reported as 70%; in experiment [6] (10 DAT, HER dose 24 g a.i./ha), 70%.

Consider `COCCOC(=O)C1C=CC(NC(=O)C2(C)CC(c3cc(Cl)cc(C#N)c3)=NO2)C1` (stereo not drawn) [Example 1.5], for which the “HER effect + SAF” value in experiment [3] (setting [24]) worked out at 0%; in experiment [4] (setting [25]), 0%; in experiment [5] (setting [26]), 0%; in experiment [5] (setting [22]) it was 60%. For the same compound, the “Reduction [%]” value in experiment [3] (setting [24]) came out at 100%; in experiment [4] (setting [25]), 100%; in experiment [5] (setting [26]), 100%; in experiment [5] (setting [22]), 25%; in experiment [6] (21 DAT, HER dose 8 g a.i./ha), 89%; in experiment [6] (21 DAT, HER dose 32 g a.i./ha) it was 68%. For the same compound, the “Reduction [Difference]” value in experiment [3] (setting [24]) came to 20; in experiment [4] (setting [25]) it was 50; in experiment [5] (setting [26]), 20; in experiment [5] (setting [22]), 20; in experiment [6] (21 DAT, HER dose 8 g a.i./ha), 80; in experiment [6] (21 DAT, HER dose 32 g a.i./ha), 65. Further, the HER effect in experiment [3] (herbicide alone 2 g a.i./ha, 21 DAT) was 20%; in experiment [4] (herbicide alone 2 g a.i./ha), 50%; in experiment [5] (herbicide alone 2 g a.i./ha post-emergence, 21 DAT), 20%; in experiment [5] (setting [23]), 80%. In addition, the “HER effect + SAF [%] (crop damage)” value in experiment [6] (21 DAT, HER dose 8 g a.i./ha) came out at 10%; in experiment [6] (21 DAT, HER dose 32 g a.i./ha), 30%. The “HER effect [%] (crop damage, herbicide without safener)” value in experiment [6] (21 DAT, HER dose 8 g a.i./ha) was 90%; in experiment [6] (21 DAT, HER dose 32 g a.i./ha) it was 95%.
